Legend:
TSPO [1] = molecular target: TSPO; design: method as in PMID 20045646; details: printed in Fig. 2; cited from earlier work
TSPO [2] = molecular target: T1, TSPO (Rattus norvegicus, UniProt P16257); experiment: Competition binding assay, displacement of [3H]-PK11195 in rat brain homogenates; details: displacement of [3H]-PK11195, rat brain homogenates; mean ± SD of three independent experiments
T1 construct: Whole brains from male Sprague-Dawley rats (200–300 g) were obtained; from tissue; host or cells: whole brain of male Sprague-Dawley rats, washed membrane homogenate
From the text: Competition Binding Assays
(6 pictures or pasted objects on this page, not shown here)

[3] = Stability testing in phosphate buffered saline at 37 °C (HPLC); type: physicochemical; details: for Purity of Compound (stability testing): 1:1 PBS/acetonitrile, 37 °C
Procedure: The key physicochemical parameters of AB5186 6, permeability (P m), membrane partition coefficient (K m) and percentage of plasma protein binding (%PPB) were determined by high-performance liquid chromatography (HPLC) methods (Table 1).[23] […] As AB5186 6 contains a fluoroalkyl group, a potential alkylating agent, the stability of this compound was examined in simulated physiological conditions. […] The combination of a relatively strong C–F bond and the presence of bulky di-ortho-substituents impart a good level of stability.
3-(Fluoromethyl)-4-phenylquinoline-2-N-diethylcarboxamide (6) (2 mg, […]) was dissolved in a 1:1 mixture of […] phosphate buffered saline and acetonitrile (2 mL) and incubated at 37 ° C. 5 µL of the solution was injected onto the HPLC system (conditions described as below in section 7) at various time points (0, 1, 2, 4, 6 and 24 h). The purity of the compound at these time points was detemined by measuring the area under the peaks of the resultant UV

[4] = molecular target: T2, human serum albumin (HSA) (Homo sapiens, UniProt P02768); experiment: Human serum albumin (HSA) chromatography for %PPB; type: in vitro ADME; details: human serum albumin (HSA) coated HPLC column, read-out: %PPB (percentage of plasma protein binding) (converted)
T2 construct: purchased ChromTech HSA 5 µm (3.0 × 50 mm) column
T2 sequence (P02768 25-609): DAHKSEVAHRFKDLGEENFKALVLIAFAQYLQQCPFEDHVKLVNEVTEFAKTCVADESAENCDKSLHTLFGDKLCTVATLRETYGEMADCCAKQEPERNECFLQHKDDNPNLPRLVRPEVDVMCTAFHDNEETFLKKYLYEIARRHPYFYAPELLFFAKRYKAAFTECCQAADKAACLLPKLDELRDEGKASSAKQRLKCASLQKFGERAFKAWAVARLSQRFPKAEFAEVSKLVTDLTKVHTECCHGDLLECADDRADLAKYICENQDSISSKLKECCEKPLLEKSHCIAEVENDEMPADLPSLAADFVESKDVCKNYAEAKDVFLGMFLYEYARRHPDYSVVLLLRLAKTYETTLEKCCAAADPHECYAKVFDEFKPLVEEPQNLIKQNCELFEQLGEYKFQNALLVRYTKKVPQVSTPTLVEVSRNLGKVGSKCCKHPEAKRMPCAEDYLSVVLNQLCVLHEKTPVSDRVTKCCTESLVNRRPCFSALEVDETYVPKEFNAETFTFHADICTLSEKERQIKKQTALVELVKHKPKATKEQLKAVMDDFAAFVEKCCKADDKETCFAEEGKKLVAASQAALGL

[5] = used for HSA column calibration; ref literature (SI ref 3); cited from earlier work

3-iodomethylquinoline-2-carboxamide [compound 4]
Ki (TSPO [1]): 12 nM

CCN(CC)C(=O)c1nc2ccccc2c(-c2ccccc2)c1CF [AB5186 6, 3-(Fluoromethyl)-4-phenylquinoline-2-N-diethylcarboxamide]
Ki (TSPO [2]): 2.8 ± 0.8 nM | Purity of Compound (stability testing) ([3]; time 0 h): 98.81% | Purity of Compound (stability testing) ([3]; time 1 h): 98.75% | Purity of Compound (stability testing) ([3]; time 2 h): 98.76% | Purity of Compound (stability testing) ([3]; time 4 h): 98.80% | Purity of Compound (stability testing) ([3]; time 6 h): 98.78% | Purity of Compound (stability testing) ([3]; time 24 h): 91.94% | decomposition ([3]; phosphate buffered saline pH 7.4, 37 °C, after 6 hours): 0.03% | fraction unbound at 0.5 mg/mL [4]: 0.103

4-(2-iodophenyl)quinoline-2-carboxamide [compound 5]
Ki (TSPO [1]): 5.01 nM

CNC(=C[N+](=O)[O-])NCCSCc1csc(CN(C)C)n1 [nizatidine]
%PPB (literature value of calibration standard) [5]: 35.0%

O=C1CN=C(c2ccccn2)c2cc(Br)ccc2N1 [bromazepam]
%PPB (literature value of calibration standard) [5]: 60.0%

CCCC1O[C@@H]2C[C@H]3[C@@H]4CCC5=CC(=O)C=C[C@]5(C)[C@H]4[C@@H](O)C[C@]3(C)[C@]2(C(=O)CO)O1 (stereo partly drawn) [budesonide]
%PPB (literature value of calibration standard) [5]: 88.0%

CCC(C)N(C)C(=O)c1cc2ccccc2c(-c2ccccc2Cl)n1 (stereo not drawn) [PK11195 1, reference compound]
fraction unbound at 0.5 mg/mL [4]: 0.085

Reference: article PMC5667507, “A novel ^18F-labelled high affinity agent for PET imaging of the translocator protein” (Chemical Science, 2015)
